The values below come from patent publication US20020048812A1, “Isolation and in vitro differentiation of conditionally immortalized murine olfactory receptor neurons” (priority 2000, published 2002).

Common to all, as to format: cell-based, mouse
In one test the test system is 3NA12 cells. Briefly: Calcium imaging (Fura-2) of odorant responses in clone 3NA12. As to conditions: 10 μM single odorant; for Cells responding to each odorant: 1256 cells; for Cells responding to the odorant (increase in intracellular calcium concentration): total of 1256 cells in nineteen experiments, permissive conditions. The method, then:
Prior to experiments (2-4 days), cells were plated onto glass coverslips and incubated in permissive conditions. To prepare for stimulation, cells were loaded with Fura-2 ([…]) for 30 minutes at 33° C., washed, and allowed to equilibrate for a further 30 minutes at room temperature. At the beginning of the experiment, cells were washed (W) to determine whether the mechanical disturbance associated with changing solution affected intracellular calcium concentrations.
To determine whether cells from the 3NA12 clone were capable of functional responses to odorants, single odorants were applied to cells loaded with Fura-2. […] Since the onset of odorant receptor expression is at c. E13 in the rat (Strotmann et al., 1995), and each of the components of the signal transduction pathway is present in cells cultured in permissive conditions, cells at permissive conditions were chosen for all subsequent experiments.
Cloned olfactory receptor neurons were plated onto glass coverslips up to one week before imaging. On the day of analysis, the culture medium was removed and replaced with MDV containing 2 μM Fura-2-AM (Molecular Probes, Eugene, Oreg.) and 0.2% Pluronic F-127 (Sigma) dissolved in DMSO. Cells were incubated at appropriate culture temperatures (33° C. or 37° C.) for at least 30 minutes, rinsed and allowed to equilibrate in medium for 30 minutes prior to experiments. Additionally, to ensure that a response could not be induced mechanically, each experiment was started by washing the cells with bath solution in the same manner used in odorant application. For solution exchange, 5 ml of bath solution or odorant test solution was pipeffed manually into the bath (volume, 300 μl) fitted with a continual suction pump. This ensured complete replacement of the bath solution with the incoming solution without altering bath volume. Single odorants were applied to the cloned cell line 3NA12 and mixtures of odorants were applied to primary cultures of mouse olfactory bulb neurons and rat ORNs. […] When single odorants were used, they were taken from Mixture 2. Stock solutions of odorants (20 mM in DMSO) were made up every second day and diluted 1:2000 in bath solution (final concentration, 10 μM each) within seconds of application. The bath solution contained 140 mM NaCl, 5 mM KCl, 2 mM CaCl2, 10 mM HEPES and 10 mM glucose at pH 7.4. Calcium imaging was performed as described previously (Krautwurst et al., 1998; Grynkiewicz et al., 1985), in which ratiometric measurements were obtained using the Zeiss/Attofluor-Ratiovision imaging system on a Zeiss Axiovert 135 microscope fitted with an F Fluor 20×/1.30 lens. Cells were illuminated at 340 nm and 380 nm and the emission at 510 nm was monitored using an intensified CCD camera. The Attofluor-Ratiovision software was used to derive the Ca^2+-dependent ratio. Solutions of CaCl2 (1 mM) and EDTA (1 mM) containing Fura-2 pentasodium salt ([…], Molecular Probes) were used to provide a two-point calibration of the experimental set-up as directed by the instrument manufacturer (Atto Instruments, Rockville, Md.).
On the technique in general: Calcium assays in cells follow changes in intracellular calcium, usually with a dye or a luminescent sensor.

The test system of test [1] is NST+ cells in the heterogeneous culture. Briefly: Counting NST+ cells (anti-NST labeling) in heterogeneous olfactory cell cultures with growth factors. The note with it: for Effect on the number of NST+ cells (in words): permissive conditions (33° C.). The method, then:
FIG. 2A. Interferon causes a significant, dose-dependent increase in the number of NST+ cells in the heterogeneous culture, with an EC50 of 0.4 U.ml^−1. Cells were incubated at 33° C. and were stained with anti-NST and rhodamine-coupled secondary antibodies seven days after plating. Cell counts were obtained from ten randomly selected areas in each experiment. Data were normalized to the mean number of NST+ cells in the absence of interferon and each point represents the mean ±S.E.M from three experiments.
FIG. 2B. EGF (•) and NGF (□) both have mitogenic effects in permissive conditions over and above the effect of interferon. NST+ cells were counted as described in (A) and were normalized to baseline levels in the presence of interferon (40 U.ml^−1). […] Except for the presence of interferon (40 U.ml^−1), all experimental conditions were as in A.
To determine the optimal conditions for cell survival, growth, differentiation and maturation, cells were cultured in permissive and non-permissive conditions in the presence of interferon, EGF, NGF, BDNF and NT-3. […] The effects of EGF, NGF, BDNF and NT-3 on cell maturation in non-permissive culture conditions were
To keep the amount of expressed TAg to the minimum required for immortalization (Noble et al., 1995), heterozygous offspring from homozygous male H-2K^b-tsA58 transgenic and C57B1 female mice (Charles River Laboratories, Wilmington Mass., and Jackson Laboratory, Bar Harbor, Me., respectively) were used to generate the conditionally immortal neuronal cell culture. Cells were isolated in a procedure modified from a previously established technique (Ronnett et al., 1991). Briefly, post-natal day 1-3 animals were decapitated and the heads were sectioned longitudinally. The olfactory epithelium and nasal septum were removed and placed in an Eppendorf tube containing 500 μl culture medium. The culture medium consisted of Minimum Essential Medium in which the L-valine has been replaced by D-valine (MDV). This was supplemented with 10% fetal bovine serum (FBS), 4 mM glutamine, kanamycin (100 μg.ml^−1), gentamicin (50 U.ml^−1) and amphotericin B (2.5 μg.ml^−1; all from Gibco BRL, Gaithersburg, Md.). The MDV medium was chosen because fibroblasts lack D-amino acid oxidase and the reduction of L-valine inhibits fibroblast survival and growth (Gilbert et al., 1986). Tissue was centrifuged at low speed for two minutes and then most of the medium was removed. The cell pellet was chopped briefly with a pair of fine-point scissors before being resuspended in supplemented cell culture medium. The resultant cell clumps and cell suspension were plated out onto 2- or 4-chamber glass slides (Nunc, Naperville, Ill.) or plastic dishes (Fisher Scientific, Pittsburgh, Pa.). To enhance ORN adhesion, all cell culture materials were pretreated with laminin (0.125 mg.ml^−1 in serum-free media, Collaborative Biomedical Products, Bedford, Mass.) for at least 12 hours, prior to plating. Cells were maintained in culture at 33° C. (the permissive temperature for the SV40 TAg) and, to stimulate transcription of the transgene, the culture medium was supplemented with murine γ-interferon (40 U.ml^−1, Genzyme, Cambridge, Mass.). Provisionally, in permissive conditions, the cell culture medium was supplemented with epidermal growth factor (EGF, 20 ng.ml^−1, Gibco BRL) and 2.5 S nerve growth factor (NGF, 10 ng.ml^−1, Gibco BRL) before thorough characterizations of their effects were made in later experiments.
To determine optimum conditions for cell survival, growth, differentiation or maturation, numerous combinations of culture conditions were tested. These included i) removal of the olfactory epithelium from newborn, 4-week-old, and sexually mature animals, ii) subjecting tissue to digestion by trypsin (Gibco BRL, 0.5 g.l^−1 for 60 minutes at 37° C.), iii) addition of growth factors to the culture medium and iv) the use of diverse culture media. […]

The test system of test [2] is olfactory marker protein (OMP). Briefly: OMP expression by Western blot in cells in non-permissive conditions. As to conditions: 37° C., heterogeneous cell cultures, 15 μg protein per lane. The protocol: FIG. 2C. Effects of EGF, NGF, BDNF and NT-3 on OMP expression as determined by Western blot. Cells were maintained in non-permissive conditions at 37° C. in the absence of growth factors (C) or in presence of EGF (E), NGF (N), BDNF (B) or NT-3 (3). Samples were isolated from the heterogeneous cell cultures and from olfactory tissue (T), and were separated on a SDS-polyacrylamide gel (15 μg protein per lane). OMP is a 19 kD protein and, in situ, is expressed only in mature olfactory receptor neurons. OMP was not detected in control cells (C), cultured in the absence of growth factors or in cells incubated in the presence of EGF.
assayed by Western blot detection of olfactory marker protein (OMP), a marker of mature olfactory receptor neurons (Margolis, 1988).
Cells were always maintained in permissive culture conditions except when attempts were made to obtain a differentiated phenotype through transgene inactivation. In this case, cells were incubated in non-permissive culture conditions, i.e. at 37° C. in γ-interferon-free media for seven days, before the effects of transgene inactivation were determined. The effects of EGF, NGF, BDNF and NT-3 in promoting cell maturation/differentiation were assessed and, based on those experiments, BDNF and NT-3 were routinely added to the culture medium for cells in non-permissive culture conditions. In both culture environments, the air was kept humidified and contained 5% CO2.
Cells were scraped into a cold isolation buffer containing 20 mM Na(N-tris[hydroxymethyl]methyl-2-aminoethanesulfonic acid) (Na TES), 10 mM mannitol and 1% Triton X-100 at pH 7.4. The isolation buffer was supplemented with phenylmethylsulfonyl fluoride (30 μg.ml^−1), leupeptin (2 μg.ml^−1), benzamidine (16 μg.ml^'1), pepstatin (2 μg.ml^−1), and lima bean trypsin inhibitor (50 μg.ml^−1) to prevent protease activity. After five freeze/thaw cycles, cell extracts were centrifuged at 2,000 g for 5 minutes to pellet nuclei and cell debris. […]
A general note: In western blotting, separated proteins are transferred to a membrane and probed.

Where [3] appears, read: 33° C., 100 ng.ml^−1, in the presence of 40 U.ml^−1 interferon, normalized to that point.

“Also recorded” adds a separate entry of the source.

Take `CC(=O)c1ccccc1` [acetophenone]: in the test on 3NA12 cells, the “Cells responding to each odorant” value is on record as about 1% and the “Cells responding to the odorant (increase in intracellular calcium concentration)” value was determined as 15 cells.
Consider “Interferon: murine γ-interferon (Genzyme), stimulates transcription of the transgene”, for which the “EC50 (increase in number of NST+ cells)” value in test [1] (33° C., permissive, seven days after plating, sigmoidal curve fit) came to 0.4 U.ml^−1. Further, the “Normalized # of NST+ Cells” value in test [1] (33° C., interferon 40 U.ml^−1, normalized to NST+ cells cultured in the absence of interferon) came to 2.0 ± 0.2; in test [1] (37° C., interferon 40 U.ml^−1, normalized to absence of interferon), 1.9 ± 0.1. Further, the “Effect on the number of NST+ cells (in words)” value (“Effect on the number” below) in test [1] is “significant increase”.
On to `CCCCCCC=O` [heptaldehyde], for which, in the test on 3NA12 cells, the “Cells responding to each odorant” value is about 1% and the “Cells responding to the odorant (increase in intracellular calcium concentration)” value was determined as 17 cells.
Turning to “EGF: epidermal growth factor (Gibco BRL)”, in test [1] (33° C., 10 ng.ml^−1, in the presence of 40 U.ml^−1 interferon, normalized to that point), the “Normalized # of NST+ Cells” value is on record as 1.7 ± 0.2. Further, in test [1], the “Effect on the number” value is “increased the number of NST+ cells; also recorded: greatest increase of NST+ cells”.
For the molecule L-carvone, in the test on 3NA12 cells, the “Cells responding to each odorant” value was about 1% and the “Cells responding to the odorant (increase in intracellular calcium concentration)” value is on record as 16 cells.

B1: NGF: 2.5 S nerve growth factor (Gibco BRL) (protein, UniProt P01139 122-241, looked up)
Beta-nerve growth factor: SSTHPVFHMGEFSVCDSVSVWVGDKTTATDIKGKEVTVLAEVNINNSVFRQYFFETKCRASNPVESGCRGIDSKHWNSYCTTTHTFVKALTTDEKQAAWRFIRIDTACVCVLSRKATRRG
modifications: Beta-nerve growth factor
For the molecule B1, in test [1] (setting [3]), the “Normalized # of NST+ Cells” value is recorded as 1.5 ± 0.2. Besides, the “Effect on the number” value in test [1] is given as “increased the number of NST+ cells”. Also, the “OMP expression detected by Western blot (in words)” value in test [2] was “barely detectable”.

B2: BDNF: brain-derived neurotrophic factor (Peprotech) (protein, UniProt P23560 129-247, looked up)
Neurotrophic factor BDNF: HSDPARRGELSVCDSISEWVTAADKKTAVDMSGGTVTVLEKVPVSKGQLKQYFYETKCNPMGYTKEGCRGIDKRHWNSQCRTTQSYVRALTMDSKKRIGWRFIRIDTSCVCTLTIKRGR
modifications: Neurotrophic factor BDNF
Take B2: the “Normalized # of NST+ Cells” value in test [1] (setting [3]) was 1.3 ± 0.2; in test [1] (37° C., 100 ng.ml^−1), 1.3 ± 0.2. In addition, the “Effect on the number” value in test [1] was “no effect”. In addition, in test [2], the “OMP expression detected by Western blot (in words)” value is “significant expression of OMP could be observed; also recorded: to a lesser degree, was detected”.
